Test results as given in PMC7369637, “Inhibition of Resistance-Refractory P. falciparum Kinase PKG Delivers Prophylactic, Blood Stage, and Transmission-Blocking Antiplasmodial Activity” (Cell Chemical Biology, 2020).
Like-named read-outs stand apart in the source and are kept apart here.

Assays:
[1] = system: phosphoproteome of Dd2-B2 Pf schizonts; assay: Phosphoproteomics of Dd2-B2 schizonts exposed to 1200 nM MMV030084 for 3 h; type: cell-based, Plasmodium falciparum; conditions: 1,200 nM, vs untreated
Protocol: Red blood cells were lysed by 0.1% saponin in washing buffer (20 mM β-glycerophosphate, 1 tablet of cOmplete protease inhibitor cocktail (Roche), and 1 tablet of PhosSTOP phosphatase inhibitor (Roche) per 10 ml PBS). Parasites were subsequently washed three times in washing buffer. Parasite pellets were stored at -80°C until all samples from two independently repeated exposure experiments were collected. Proteins were extracted from schizont pellets by sonication and lysis in Tris-EDTA buffer (10 mM Tris-HCl, 5 mM EDTA, 20 mM ß-glycerolphosphate; pH 7.4, 1% NP-40, 2% CHAPS) followed by reduction of disulfide bonds and alkylation. Samples were digested with trypsin at a ratio of 1:15 (w/w) trypsin and proteins concentrated using S-trap columns (ProtiFi) for 1 h at 47°C. For tandem mass tag (TMT) labelling, digested samples were incubated with TMTsixplex reagents (Thermo Scientific). All labeled samples were pooled together, loaded onto an anion-exchange column, and fractionated on an AKTA purifier (GE Healthcare). The fractions were concentrated and phosphopeptides were enriched using titanium dioxide (TiO2) and immobilized metal affinity chromatography (IMAC). […] We also analyzed the peptide sequences for patterns that conformed to the previously established PfPKG consensus motif K/RR/KxpS/pT and the PfPKA consensus motif K/RxxpS/pT ([Francis et al., 2010]).

URP cKD line = assay: Compound susceptibility assay using cKD lines (72 h, Renilla luciferase); type: cell-based, Plasmodium falciparum; conditions: Plasmodium falciparum
Text: (§1) To study the interaction between the compounds and PKG (PF3D7_1436600), AAT (PF3D7_1231400), CDPK1 (PF3D7_0217500), TKL3 (PF3D7_1349300), PP1 (PF3D7_1414400), and URP (PF3D7_0808300), cKD lines were generated by fusing the transcripts with RNA aptamers for translation regulation with the TetR/DOZI system ([Ganesan et al., 2016]). The right homology regions (RHR) of each target gene were amplified by PCR, using the primers listed in Table S1 (A), and along with the left homology regions (LHR) were fused to the re-codonized 3'-end region of the gene. Single guide RNA fragments were synthesized using the BioXP™ 3200 System (SGI-DNA; Table S1 (A)) and were cloned into the pSN054 vector ([Nasamu et al., 2019]) to install the C-terminal epitope tags V5 and 2x-hemagglutinin (HA) followed by a 10x RNA aptamer array and the TetR-DOZI expression cassette. This cassette also contained Blasticidin S-deaminase for selection in the parasites and the reporter gene Renilla luciferase (RLuc). The 3'-end of each target was re-codonized to avoid further modifications of the edited locus in the parasite via removal of the PAM site. Donor vector generation was carried out via Gibson assembly, and the final construct sequence was confirmed by restriction digests and Sanger sequencing.
(§2) Transfection into parasites was carried out by preloading erythrocytes with linearized vectors as described previously ([Deitsch et al., 2001]). Briefly, 50 μg of purified plasmid DNA was mixed with human RBC and subjected to 8 square wave electroporation pulses of 365 V for 1 ms each, separated by 0.1 s in a 0.2 cm cuvette. The plasmid DNA preloaded cells were inoculated with NF54 parasites expressing Cas9 and T7 RNA polymerase, maintained in 500 nM anhydrotetracycline (aTc, Sigma-Aldrich 37919), and drug selection with 2.5 μg/mL of Blasticidin (RPI Corp B12150-0.1) was initiated four days after transfection. Emergence of transfectants was monitored via Giemsa smears and RLuc measurements.
(§3) Synchronized ring-stage cKD parasites in varying aTc concentrations (high = 50 nM, intermediate = 1.5 nM, low = 1 nM, and no aTc) were distributed into the drug plate. No-drug treatment and treatment with a lethal dose of chloroquine (200 nM) served as reference controls.

TKL3 cKD line = assay: as above; type: cell-based, Plasmodium falciparum; conditions: for IC50: Plasmodium falciparum, TKL3 cKD line
Text: as §1, §2, §3

PP1 cKD line = assay: as above; type: cell-based, Plasmodium falciparum; conditions: Plasmodium falciparum
Text: as §1, §2, §3

PKG cKD line = assay: as above; type: cell-based, Plasmodium falciparum; conditions: for IC50: Plasmodium falciparum, PKG cKD line
Text: as §1, §2, §3

AAT cKD line = assay: as above; type: cell-based, Plasmodium falciparum; conditions: for IC50: Plasmodium falciparum, AAT cKD line
Text: as §1, §2, §3

CDPK1 cKD line = assay: as above; type: cell-based, Plasmodium falciparum; conditions: for IC50: Plasmodium falciparum, CDPK1 cKD line
Text: as §1, §2, §3

[2] = system: 3D7-A10 parasites (rings, trophozoites, schizonts); assay: ABS stage-specific 8-h exposure assay on highly synchronized parasites; type: cell-based, Plasmodium falciparum; conditions: for IC50: 3D7-A10, 8 h exposure
Protocol: Synchronicity was achieved using three rounds of sorbitol treatment on early rings, spaced 48 h apart, followed by magnetic purification of segmented schizonts following the final sorbitol treatment. Parasites were highly synchronous to within a 3 h window of development. Assays were repeated on at least three independent occasions (each with technical duplicates) and statistical significance was assessed using Mann Whitney U tests.

Pf 3D7-A10 ABS parasites = assay: 72-h ABS growth inhibition assay, 3D7-A10; type: cell-based; conditions: Plasmodium falciparum, 3D7, Line 3D7-A10 wild-type
Protocol: Synchronicity was achieved using three rounds of sorbitol treatment on early rings, spaced 48 h apart, followed by magnetic purification of segmented schizonts following the final sorbitol treatment. […] Assays were repeated on at least three independent occasions (each with technical duplicates) and statistical significance was assessed using Mann Whitney U tests.

Compound: CC(C)(CN)c1nc(-c2ccc(Cl)c(O)c2)c(-c2ccncc2)[nH]1 [MMV030084]
- Number of proteins with increased phosphorylation levels [1]: 15
- Number of proteins with phosphorylation status reduced by more than 35% [1]: 16
- IC50 (URP cKD line; Control, [aTc] used 50.0): 0.0359 µM
- IC50 (URP cKD line; KD, [aTc] used 0.0): 0.0424 µM
- IC50 (TKL3 cKD line; Control, [aTc] used 50.0): 0.0424 µM
- IC50 (TKL3 cKD line; KD, [aTc] used 0.0): 0.0886 µM
- Increase in IC50 induced by TKL3 knockdown (TKL3 cKD line; cKD vs isogenic control): 2.1 fold
- IC50 (PP1 cKD line; Control, [aTc] used 50.0): 0.0392 µM
- IC50 (PP1 cKD line; KD, [aTc] used 1.5): 0.057 µM
- IC50 (PKG cKD line; Control, [aTc] used 50.0): 0.0274 µM
- IC50 (PKG cKD line; KD, [aTc] used 1.0): 0.0066 µM
- Sensitization when PKG was knocked down (PKG cKD line; cKD vs control): 4.2 fold
- IC50 (AAT cKD line; Control, [aTc] used 50.0): 0.0506 µM
- IC50 (AAT cKD line; KD, [aTc] used 0.0): 0.0298 µM
- Decrease in IC50 under AAT cKD conditions (AAT cKD line; cKD vs control): 1.7 fold
- IC50 (CDPK1 cKD line; Control, [aTc] used 50.0): 0.0454 µM
- IC50 (CDPK1 cKD line; KD, [aTc] used 1.0): 0.0415 µM
- Change in susceptibility when CDPK1 was knocked down (CDPK1 cKD line; cKD vs control): No change
- IC50 ([2]; first shift of biphasic curve, read-out: Mean IC50, schizont biphasic shift 1): 0.0956 µM
- IC50 ([2]; second shift of biphasic curve, read-out: Mean IC50, schizont activity shift 2): 3.93 µM
- IC50 ([2]; read-out: Mean IC50, late ring stage activity): 5.87 µM
- Survival at plateau phase of biphasic schizont curve ([2]; 3D7-A10 schizonts, 8 h exposure): ~ 58%
- IC50 ([2]; Plasmodium falciparum, 3D7, 8 h, early and late rings averaged, read-out: Average IC50, rings): 5.56 µM
- IC50 ([2]; Plasmodium falciparum, 3D7, 8 h, early and late trophozoites averaged, read-out: Average IC50, trophozoites): 3.25 µM
- IC50 ([2]; Plasmodium falciparum, 3D7, 8 h, first shift of biphasic curve, read-out: Mean IC50, schizont biphasic shift 1): 0.096 µM
- IC50 ([2]; Plasmodium falciparum, 3D7, 8 h, second shift of biphasic curve, read-out: Mean IC50, schizont activity shift 2): 3.93 µM
- IC50 ([2]; Plasmodium falciparum, 3D7, 8 h, read-out: Mean IC50, early ring stage activity): 5.25 µM
- IC50 ([2]; Plasmodium falciparum, 3D7, 8 h, read-out: Mean IC50, early trophozoite activity): 3.21 µM
- IC50 ([2]; Plasmodium falciparum, 3D7, 8 h, read-out: Mean IC50, late ring stage activity): 5.87 µM
- IC50 ([2]; Plasmodium falciparum, 3D7, 8 h, read-out: Mean IC50, late trophozoite activity): 3.28 µM
- IC50 (Pf 3D7-A10 ABS parasites): 0.178 µM
